In publication PMC11904993, “Humanized Candida and NanoBiT Assays Expedite Discovery of Bdf1 Bromodomain Inhibitors With Antifungal Potential” (Advanced Science, 2025):
“And” between values parts separate entries of the source, which are not always exact repeats. Equal values may be shown once. Read-outs that look alike come from different tables or passages of the source.

How the values were obtained:
[1] = system: CgBdf1 BD1; assay: Histone peptide array assay; details: peptide array signal; for Raw data, WT / Normalized (0 to 100%), WT: CgBdf1 BD1 WT; for Normalized (0 to 100%), WT / Normalized (0 to 100%), YF mutant: mean of the two raw values; for Raw data, YF mutant / Normalized (0 to 100%), YF mutant: CgBdf1 BD1 YF mutant
Experimental: (§1) The array was prepared as described in the manufacturer's instructions. […] The array was then washed three times with binding buffer. Anti‐GST antibody (GE Healthcare) was used for the detection of GST‐tagged bromodomains.

[2] = system: CgBdf1 BD2; assay: Histone peptide array assay; details: peptide array signal; for Raw data, WT / Normalized (0 to 100%), WT: CgBdf1 BD2 WT; for Normalized (0 to 100%), WT / Normalized (0 to 100%), YF mutant: mean of the two raw values; for Raw data, YF mutant / Normalized (0 to 100%), YF mutant: CgBdf1 BD2 YF mutant
Experimental: as §1

[3] = target: CgBdf1 BD1 (Candida glabrata, UniProt Q6FWV7); assay: HTRF assay, inhibition of H4ac4 peptide binding; parameters: species or system C. glabrata; details: for IC50 / pIC50 CgBD1: single experiments Exp1-3; for IC50: read-out: pIC50 CgBD1 (converted)
[4] = target: CgBdf1 BD2 (Candida glabrata, UniProt Q6FWV7); assay: biochemical; assay type: binding, C. glabrata; details: for IC50: read-out: pIC50 CgBD2 (converted)
[5] = system: C. glabrata strains expressing WT and mutant Bdf1; assay: Growth inhibition in liquid media, C. glabrata lab strains; details: for EC50: Nakaseomyces glabratus; for EC50 / pEC50 growth inhibition: single experiments Exp1-3; for pEC50 growth inhibition: Fig 2C; for OD at 600 nm: Figure S4B
Experimental: (§2) Growth on Liquid Media with C. glabrata Lab Strains: Cells were grown at 30 °C in SC+M+C‐U medium (SC medium with 5 mM methionine, 0.25 mM cysteine, without uracil) to an OD600 of 0.5–0.8. […] Plates were incubated at 30 °C and OD600 was measured using a Multiskan FC Microplate Photometer (Thermo Fisher).

[6] = system: C. glabrata expressing humanized Bdf1 (Brd4 BDs); assay: Growth inhibition in liquid media, humanized C. glabrata strains; details: Fig 3E, 50 µM, Exp 1-3
Experimental: as §2

[7] = Fig 2C original data, analogs of 24
[8] = Fig 2C original data, analogs of 24, single experiments Exp1-3
[9] = read-out: pEC50 (WT BDF1), Fig 2D (converted), WT C. glabrata
[10] = read-out: pEC50 growth inhibition, Fig 2C (converted), strain BD1 Y-F
[11] = read-out: pEC50 growth inhibition, Fig 2C (converted), strain BD2 Y-F

Sequence of CgBdf1 BD2 (Candida glabrata, UniProt Q6FWV7) (Q6FWV7 entry or part of it): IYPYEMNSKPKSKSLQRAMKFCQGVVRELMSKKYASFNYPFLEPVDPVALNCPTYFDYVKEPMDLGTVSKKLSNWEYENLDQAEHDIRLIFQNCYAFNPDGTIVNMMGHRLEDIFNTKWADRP
Sequence of CgBdf1 BD1 (Candida glabrata, UniProt Q6FWV7) (Q6FWV7 entry or part of it): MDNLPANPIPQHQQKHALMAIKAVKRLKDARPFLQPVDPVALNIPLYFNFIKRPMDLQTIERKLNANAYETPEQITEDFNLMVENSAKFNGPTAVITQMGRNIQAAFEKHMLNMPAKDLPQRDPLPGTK

Question: How did the “Raw data, WT” value ([1]; first replicate column) turn out when `Cc1ccc(-c2nnc(C)c(Cl)n2)cc1` [Compound 68] was run?
Answer: Its value is 0.003466.

Question: What about the “Normalized (0 to 100%), WT” value [1] of the same compound?
Answer: Its value is 2.19%.

Question: What about the “Raw data, WT” value ([1]; second replicate column) of the same compound?
Answer: Its value is 0.04033.

Question: And the “Raw data, YF mutant” value ([1]; first replicate column)?
Answer: The value was 0.003085.

Question: And the “Normalized (0 to 100%), YF mutant” value [1]?
Answer: The value was 0.355%.

Question: And the “Raw data, YF mutant” value ([1]; second replicate column)?
Answer: Its value is 0.00401.

Question: What about the “Raw data, WT” value ([2]; first replicate column) of the same compound?
Answer: Its value is 0.004679.

Question: And the “Normalized (0 to 100%), WT” value [2]?
Answer: The value was 0.624%.

Question: What about the “Raw data, WT” value ([2]; second replicate column) of the same compound?
Answer: The value was 0.007798.

Question: What about the “Raw data, YF mutant” value ([2]; first replicate column) of the same compound?
Answer: The value was 0.004601.

Question: What about the “Normalized (0 to 100%), YF mutant” value [2] of the same compound?
Answer: Its value is 0.23%.

Question: And the “Raw data, YF mutant” value ([2]; second replicate column)?
Answer: Its value is 0.

Question: What does the source list for `Cc1ccc(-c2nnc(C)c(NCc3ccccc3)n2)cc1` [Compound 24m, N‐benzyl‐6‐methyl‐3‐(p‐tolyl)‐1,2,4‐triazin‐5‐amine]?
Answer: IC50 [3, 7]: > 20 µM; IC50 [4, 8]: > 20 µM; EC50 [5, 9]: > 251 µM; EC50 [5, 10]: > 251 µM; EC50 [5, 11]: > 251 µM

Question: With `Cc1cccc(-c2nnc(C)c(NCc3ccco3)n2)c1` [Compound 24b] as the compound, how does the IC50 [3, 7] read?
Answer: Its IC50 is 12.6 µM and 14.6 µM and 22.2 µM.

Question: What about the IC50 [4, 8] of the same compound?
Answer: Its IC50 is 29.5 µM and 74.6 µM and > 100 µM.

Question: And the pEC50 growth inhibition ([5]; strain BD2 Y-F)?
Answer: The pEC50 growth inhibition was 3.930 and 3.985.

Question: And the EC50 [5, 9]?
Answer: The EC50 was over 251 µM.

Question: And the EC50 [5, 10]?
Answer: Its EC50 is over 251 µM.

Question: And the EC50 [5, 11]?
Answer: Its EC50 is 74.8 µM.

Question: How did the “%Growth” value ([5]; Fig 3E, 50 µM, WT BDF1-flag, Exp 1-3) turn out when `CCNC(=O)C[C@@H]1N=C(c2ccc(Cl)cc2)c2cc(OC)ccc2-n2c(C)nnc21` [I-BET762] was run?
Answer: The value was 107% and 101%.

Question: What about the “%Growth” value ([6]; BDF1-hBD1-flag) of the same compound?
Answer: The value was 102% and 95% and 92%.

Question: What about the “%Growth” value ([6]; BDF1-hBD2-flag) of the same compound?
Answer: Its value is 105% and 93% and 100%.

Question: And the “%Growth” value ([6]; humanized BDF1-flag)?
Answer: The value was 83%.

Question: For `CCOC(=O)Nc1cc(-c2ccc(C)c(NS(C)(=O)=O)c2)nn2c(C)nnc12` [Bromosporine, reference compound], which remaining activity at 0.07813 µM ([3]; 4 h, CgBD1, Conc 78.13 nM, replicate experiments, read-out: HTRF signal relative to no-compound control (Figure S4A raw data)) is on record?
Answer: The remaining activity at 0.07813 µM was 98%.

Question: And the remaining activity at 0.3125 µM ([3]; 4 h, CgBD1, Conc 312.5 nM, replicate experiments, read-out: HTRF signal relative to no-compound control (Figure S4A raw data))?
Answer: The remaining activity at 0.3125 µM was 97.9%.

Question: And the remaining activity at […] ([3]; 4 h, CgBD1, Conc 2500 nM, replicate experiments, read-out: HTRF signal relative to no-compound control (Figure S4A raw data))?
Answer: Its remaining activity at […] is 94.3%.

Question: And the remaining activity at 5 µM ([3]; 4 h, CgBD1, Conc 5000 nM, replicate experiments, read-out: HTRF signal relative to no-compound control (Figure S4A raw data))?
Answer: Its remaining activity at 5 µM is 80.9%.

Question: And the remaining activity at 10 µM ([3]; 4 h, CgBD1, Conc 10000 nM, replicate experiments, read-out: HTRF signal relative to no-compound control (Figure S4A raw data))?
Answer: Its remaining activity at 10 µM is 75.9%.

Question: What about the remaining activity at 20 µM ([3]; 4 h, CgBD1, Conc 20000 nM, replicate experiments, read-out: HTRF signal relative to no-compound control (Figure S4A raw data)) of the same compound?
Answer: The remaining activity at 20 µM was 49.4%.

Question: And the IC50 ([3]; Fig 1D/2A original data)?
Answer: The IC50 was 23.4 µM and 12.3 µM and 20 µM.

Question: And the remaining activity at 0.07813 µM ([4]; 24 h, CgBD2, Conc 78.13 nM, replicate experiments, read-out: HTRF signal relative to no-compound control (Figure S4A raw data))?
Answer: The remaining activity at 0.07813 µM was 106%.

Question: What about the remaining activity at 0.15625 µM ([4]; 24 h, CgBD2, Conc 156.25 nM, replicate experiments, read-out: HTRF signal relative to no-compound control (Figure S4A raw data)) of the same compound?
Answer: The remaining activity at 0.15625 µM was 113%.

Question: What about the remaining activity at […] ([4]; 24 h, CgBD2, Conc 2500 nM, replicate experiments, read-out: HTRF signal relative to no-compound control (Figure S4A raw data)) of the same compound?
Answer: The remaining activity at […] was 79.8%.

Question: What about the remaining activity at 5 µM ([4]; 24 h, CgBD2, Conc 5000 nM, replicate experiments, read-out: HTRF signal relative to no-compound control (Figure S4A raw data)) of the same compound?
Answer: The remaining activity at 5 µM was 60.1%.

Question: And the remaining activity at 10 µM ([4]; 24 h, CgBD2, Conc 10000 nM, replicate experiments, read-out: HTRF signal relative to no-compound control (Figure S4A raw data))?
Answer: Its remaining activity at 10 µM is 30.8%.

Question: What about the remaining activity at 20 µM ([4]; 24 h, CgBD2, Conc 20000 nM, replicate experiments, read-out: HTRF signal relative to no-compound control (Figure S4A raw data)) of the same compound?
Answer: The remaining activity at 20 µM was 23.4%.

Question: And the IC50 ([4]; Fig 1D/2A original data, single experiments Exp1-3)?
Answer: Its IC50 is 4.9 µM and 4.17 µM.

Question: What about the “OD at 600 nm” value ([5]; WT BDF1 strain, Exp 1-3) of the same compound?
Answer: The value was 0.446 and 0.443 and 0.490.

Question: What about the “OD at 600 nm” value ([5]; bdf1-bd1Δ strain, Exp 1-3) of the same compound?
Answer: Its value is 0.422 and 0.447 and 0.470.

Question: What about the “OD at 600 nm” value ([5]; bdf1-bd2Δ strain, Exp 1-3) of the same compound?
Answer: The value was 0.242 and 0.229 and 0.260.

Question: Which IC50 [3, 7] does the source give for `COc1ccc(CNc2nc(-c3ccc(C)cc3)nnc2C)cc1OC` [Compound 24i] here?
Answer: Its IC50 is 2.61 µM and 2.54 µM and 2.62 µM.

Question: What about the IC50 [4, 8] of the same compound?
Answer: The IC50 was 44.1 µM and 45 µM and 41.5 µM.

Question: What about the EC50 [5, 9] of the same compound?
Answer: The EC50 was over 251 µM.

Question: And the EC50 [5, 10]?
Answer: Its EC50 is over 251 µM.

Question: What about the EC50 [5, 11] of the same compound?
Answer: Its EC50 is over 251 µM.

Question: How did the “pIC50 CgBD1” value [3, 7] turn out when `COc1ccc(-c2nnc(C)c(NCc3ccccc3)n2)cc1` [Compound 24g] was run?
Answer: The value was 6.145 and 5.997.

Question: And the “pIC50 CgBD2” value [4, 8]?
Answer: The value was 4.269 and <4.

Question: What about the pEC50 growth inhibition ([5]; strain BD2 Y-F) of the same compound?
Answer: The pEC50 growth inhibition was 4.261 and 4.310.

Question: And the EC50 [5, 9]?
Answer: The EC50 was over 251 µM.

Question: What about the EC50 [5, 10] of the same compound?
Answer: The EC50 was over 251 µM.

Question: And the EC50 [5, 11]?
Answer: Its EC50 is 43.2 µM.

Question: Which IC50 [3, 7] does the source give for `COc1cccc(CNc2nc(-c3ccc(C)cc3)nnc2C)c1` [Compound 24f] here?
Answer: The IC50 was 3.66 µM and 2.81 µM and 2.3 µM.

Question: What about the IC50 [4, 8] of the same compound?
Answer: The IC50 was over 100 µM.

Question: And the pEC50 growth inhibition ([5]; strain BD2 Y-F)?
Answer: The pEC50 growth inhibition was 4.188.

Question: What about the EC50 [5, 9] of the same compound?
Answer: Its EC50 is over 251 µM.

Question: What about the EC50 [5, 10] of the same compound?
Answer: The EC50 was over 251 µM.

Question: What about the EC50 [5, 11] of the same compound?
Answer: Its EC50 is 68.2 µM.

Question: Which “Raw data, WT” value ([1]; first replicate column) does the source give for `Cc1ccc(-c2nc(=O)c(C)n[nH]2)cc1` [Compound 67] here?
Answer: Its value is 0.09956.

Question: And the “Normalized (0 to 100%), WT” value [1]?
Answer: The value was 16%.

Question: What about the “Raw data, WT” value ([1]; second replicate column) of the same compound?
Answer: The value was 0.2253.

Question: And the “Raw data, YF mutant” value ([1]; first replicate column)?
Answer: Its value is 0.002159.

Question: What about the “Normalized (0 to 100%), YF mutant” value [1] of the same compound?
Answer: The value was 0.308%.

Question: What about the “Raw data, YF mutant” value ([1]; second replicate column) of the same compound?
Answer: The value was 0.00401.

Question: And the “Raw data, WT” value ([2]; first replicate column)?
Answer: Its value is 0.06082.

Question: What about the “Normalized (0 to 100%), WT” value [2] of the same compound?
Answer: Its value is 11%.

Question: What about the “Raw data, WT” value ([2]; second replicate column) of the same compound?
Answer: The value was 0.1541.

Question: And the “Raw data, YF mutant” value ([2]; first replicate column)?
Answer: Its value is 0.007975.

Question: What about the “Normalized (0 to 100%), YF mutant” value [2] of the same compound?
Answer: The value was 0.613%.

Question: And the “Raw data, YF mutant” value ([2]; second replicate column)?
Answer: The value was 0.004294.

Question: For `Cc1ccc(-c2nnc(C)c(NCc3ccco3)n2)cc1` [Compound 24a], which “pIC50 CgBD1” value [3, 7] is on record?
Answer: The value was 5.099 and 5.219 and 5.157.

Question: And the “fold drop in CgBD1 inhibition” value ([3]; relative to 24, thiophenyl replaced by furyl or methylfuryl)?
Answer: The value was 3 fold.

Question: And the EC50 [5, 9]?
Answer: The EC50 was 206 µM.

Question: What about the EC50 [5, 10] of the same compound?
Answer: Its EC50 is over 251 µM.
